Activity calls are given as the source filed them. No cut-off for these calls is given here.
Legend:
4T1 = test: Antitumor activity against mouse 4T1 cells assessed as decrease in cell viability incubated for 24 hrs by LDH assay; assay type: functional, cell-based
[1] = Cytotoxicity against BALB/c mouse PBMC cells at <=0.312 uM incubated for 48 hrs by MTT assay; assay type: toxicity, cell-based
[2] = molecular target: Protein cereblon/Programmed cell death 1 ligand 1 (Mus musculus) (UniProt Q9EP73+Q8C7D2); test: PROTAC activity at CRBN/PD-L1 in mouse 4T1 cells at 0.156 to 5 uM incubated for 24 hrs by Western blot analysis; assay type: cell-based; settings: dose 0.156-5 µM
Sequence of Protein cereblon/Programmed cell death 1 ligand 1 (Mus musculus) (Q8C7D2 whole entry partner): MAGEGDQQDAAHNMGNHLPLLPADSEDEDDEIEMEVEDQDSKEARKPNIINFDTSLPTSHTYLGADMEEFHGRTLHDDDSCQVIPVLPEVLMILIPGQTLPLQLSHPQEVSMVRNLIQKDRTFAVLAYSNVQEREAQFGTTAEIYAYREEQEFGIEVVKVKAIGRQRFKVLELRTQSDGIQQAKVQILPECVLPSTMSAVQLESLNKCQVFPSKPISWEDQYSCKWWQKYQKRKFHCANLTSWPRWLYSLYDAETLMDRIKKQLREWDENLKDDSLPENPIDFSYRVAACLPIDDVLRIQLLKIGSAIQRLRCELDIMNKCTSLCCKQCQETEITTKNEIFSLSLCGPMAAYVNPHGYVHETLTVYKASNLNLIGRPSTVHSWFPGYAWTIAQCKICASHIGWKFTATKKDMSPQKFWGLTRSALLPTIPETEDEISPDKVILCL
Sequence of Protein cereblon/Programmed cell death 1 ligand 1 (Mus musculus) (Q9EP73 19-290 limits assumed): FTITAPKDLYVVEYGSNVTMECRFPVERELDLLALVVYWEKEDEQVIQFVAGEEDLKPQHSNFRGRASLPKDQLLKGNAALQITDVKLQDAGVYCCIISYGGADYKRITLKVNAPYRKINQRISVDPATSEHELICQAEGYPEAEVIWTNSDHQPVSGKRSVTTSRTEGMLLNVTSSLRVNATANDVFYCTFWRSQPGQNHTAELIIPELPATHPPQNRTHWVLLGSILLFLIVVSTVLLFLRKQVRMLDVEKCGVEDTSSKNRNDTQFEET

## COc1nc(OCc2cccc(-c3ccccc3)c2C)ccc1CNCCNC(C)=O.Cl
4T1
  Activity: Active
[1]
  Activity: Non-Toxic
[2]
  Activity: inactive
